Like-named read-outs stand apart in the source and are kept apart here.
Experiments:
[1] = system: H1N1 pdm09 virus (A/Pdm/09); assay type: cell-based, human influenza A virus
[2] = system: H1N1 pdm09 virus; assay: in vivo antiviral effect, treatment started before H1N1 infection of mice; settings: B57BL/6 mice, gavage on Day-1, day of and 3 days following infection
Protocol: B57BL/6 mice (age 7-8 weeks) are treated by gavage before (Day-1), the day of, and 3 days following infection with H1N1 pdm09 virus, according to the protocol shown diagrammatically in FIG. 5A.
The following parameters are evaluated over time: • FIG. 5B: Survival rate over time, up to 14 days post-infection; • FIG. 5C: Weight loss and gain observed over time; • FIG. 5D: Viral titer in the lungs of infected and treated mice.

[3] = in vivo evaluation in mice of toxicity (change in weight); settings: gavage; oseltamivir 10 mg/kg/day, etilefrine 3 mg/kg/day, diltiazem 90 mg/kg/day
Protocol: FIG. 4. In vivo evaluation of the toxicity of the following molecules: oseltamivir, monensin, diltiazem, etilefrine and isoxicam. The “Saline” control indicates the weight of mice treated with PBS. The curve represents the change in weight (weight gain/loss expressed as a percentage) of the various groups of mice over time.
The “Saline” control denotes untreated mice, having been treated with PBS.
The following daily amounts were administered by gavage to the mice: • oseltamivir: 10 mg/kg/day • etilefrine: 3 mg/kg/day • diltiazem: 90 mg/kg/day

[4] = system: H1N1 pdm09 virus; assay: in vivo antiviral effect, treatment 24 hours after H1N1 infection of mice; settings: B57BL/6 mice, gavage, treatment 24 hours after infection, up to 14 days post-infection
Protocol: B57BL/6 mice (age 7-8 weeks) are treated by gavage after infection with H1N1 pdm09 virus, according to the protocol shown diagrammatically in FIG. 6A. Survival rate over time is measured for infected mice receiving no treatment (FIG. 6B); treated with oseltamivir (FIG. 6C); and treated with diltiazem (FIG. 6D). The survival rate of mice treated with oseltamivir, and of those treated with diltiazem, is 100%.

[5] = system: H1N1 pdm09; assay type: cell-based, human influenza A virus
[6] = system: influenza H1N1 pdm09; assay type: cell-based, influenza virus
[7] = system: H1N1 pdm09 virus; assay type: cell-based, human influenza A virus
[8] = system: A/Moscow/10/99 (H3N2) strain; assay type: cell-based, human influenza A virus; settings: A549 cells, FIG. 2

NC(=O)c1ncn([C@@H]2O[C@H](CO)[C@@H](O)[C@H]2O)n1 [ribavirin]
normalized virus production [1]: significant decrease

CCOC(=O)C1=C[C@@H](OC(CC)CC)[C@H](NC(C)=O)[C@@H](N)C1 [oseltamivir]
survival at 14 days [2]: 60%
toxicity (change in weight of the mice) [3]: highest cell toxicity
survival rate [4]: 100%
Dose Oseltamivir ([5]; Fa = 0.90 (90%)): 7.50797 µM
Dose Oseltamivir ([5]; Fa = 0.95 (95%)): 62.435 µM
Dose Oseltamivir ([5]; Fa = 0.97 (97%)): 281.813 µM
virus production decreased to ([1]; oseltamivir alone, FIGS. 3A and 3B): about 40%
decrease of virus production relative to the control value [6]: up to 3 log 10
antiviral effect on virus production ([6]; oseltamivir 0.1 μM): no significant antiviral affect
virus production decreased to a value relative to the control value [7]: about 55%

CC[C@@]1([C@@H]2O[C@@H]([C@H]3O[C@@](O)(CO)[C@H](C)C[C@@H]3C)C[C@@H]2C)CC[C@H]([C@]2(C)CC[C@]3(C[C@H](O)[C@@H](C)[C@@H]([C@@H](C)[C@@H](OC)[C@H](C)C(=O)O)O3)O2)O1 [monensin]
normalized virus production [1]: significant decrease
decrease of virus production relative to the control value [7]: about 72%

CCNCC(O)c1cccc(O)c1 (stereo not drawn) [etilefrine]
survival at 14 days [2]: 70%
toxicity (change in weight of the mice) [3]: clearly nontoxic
antiviral effects [8]: significant from the lowest concentration tested
concentration that completely inhibits virus production [8]: 0.018 µM
normalized virus production [1]: significant decrease

COc1ccc([C@@H]2Sc3ccccc3N(CCN(C)C)C(=O)[C@@H]2OC(C)=O)cc1 [diltiazem]
survival at 14 days [2]: 90%
toxicity (change in weight of the mice) [3]: clearly nontoxic
survival rate [4]: 100%
normalized virus production [1]: significant decrease
virus production, comparison of the conditions ([1]; diltiazem alone at 9 nM, FIG. 3B): best results
antiviral effect on virus production ([6]; diltiazem 9 μM): no significant antiviral affect
antiviral effect on virus production ([6]; diltiazem 90 μM, compared with oseltamivir 1 μM): comparable antiviral effect
decrease of relative viral titer / virus production relative to the control value [7]: about 20%

CC(=O)O[C@H]1C[C@H](O[C@H]2[C@@H](O)C[C@H](O[C@H]3[C@@H](O)C[C@H](O[C@H]4CC[C@@]5(C)[C@H](CC[C@@H]6[C@@H]5C[C@@H](O)[C@]5(C)[C@@H](C7=CC(=O)OC7)CC[C@]65O)C4)O[C@@H]3C)O[C@@H]2C)O[C@H](C)[C@H]1O[C@@H]1O[C@H](CO)[C@@H](O)[C@H](O)[C@H]1O [lanatoside C]
normalized virus production [1]: did not make it possible to confirm the antiviral activity

Source: patent US12594280B2, “Antiviral compositions for treating the flu” (UNIVERSITE CLAUDE BERNARD LYON 1, priority 2015, dated 2026)
